Results on 37 molecules are retold here after patent publication US7329652B2, “Diaminotriazole compounds useful as protein kinase inhibitors” (Vertex Pharamaceuticals Incorporated, priority 2004, dated 2008).

One test addresses T1, JAK3 (Homo sapiens, UniProt P52333).
T1 sequence (P52333 1-1124): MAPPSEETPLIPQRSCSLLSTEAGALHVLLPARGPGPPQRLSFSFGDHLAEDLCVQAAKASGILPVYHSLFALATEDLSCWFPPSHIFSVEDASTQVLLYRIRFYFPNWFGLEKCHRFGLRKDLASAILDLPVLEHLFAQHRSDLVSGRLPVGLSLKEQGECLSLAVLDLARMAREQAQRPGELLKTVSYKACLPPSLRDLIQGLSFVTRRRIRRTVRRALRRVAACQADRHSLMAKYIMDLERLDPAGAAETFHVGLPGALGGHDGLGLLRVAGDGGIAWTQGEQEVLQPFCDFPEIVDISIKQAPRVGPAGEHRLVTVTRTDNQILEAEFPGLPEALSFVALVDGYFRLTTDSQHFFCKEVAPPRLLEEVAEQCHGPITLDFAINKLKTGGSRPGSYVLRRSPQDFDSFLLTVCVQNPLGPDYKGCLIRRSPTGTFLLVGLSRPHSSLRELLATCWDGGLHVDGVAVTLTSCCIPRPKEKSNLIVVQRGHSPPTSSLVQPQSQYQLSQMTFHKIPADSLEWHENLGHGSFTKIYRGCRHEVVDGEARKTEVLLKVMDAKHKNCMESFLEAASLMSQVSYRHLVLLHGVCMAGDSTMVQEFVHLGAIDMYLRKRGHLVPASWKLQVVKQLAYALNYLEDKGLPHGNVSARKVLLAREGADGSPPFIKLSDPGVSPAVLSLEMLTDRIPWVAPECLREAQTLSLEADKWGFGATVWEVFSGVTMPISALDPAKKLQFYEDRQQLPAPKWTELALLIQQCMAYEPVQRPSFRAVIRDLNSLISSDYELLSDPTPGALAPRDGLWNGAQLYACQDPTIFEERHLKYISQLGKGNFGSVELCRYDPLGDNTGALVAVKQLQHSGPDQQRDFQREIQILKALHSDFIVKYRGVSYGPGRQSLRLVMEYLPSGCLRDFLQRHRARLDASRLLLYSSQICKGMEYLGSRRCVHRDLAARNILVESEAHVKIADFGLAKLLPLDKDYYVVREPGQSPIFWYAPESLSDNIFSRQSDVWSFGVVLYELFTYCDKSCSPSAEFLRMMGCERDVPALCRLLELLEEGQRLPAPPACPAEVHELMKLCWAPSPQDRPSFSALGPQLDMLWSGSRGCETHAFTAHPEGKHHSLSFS
Briefly: JAK3 inhibition assay (radiometric 33P filter assay). The class given is biochemical. As to the method:
(§1) Compounds were screened for their ability to inhibit JAK using the assay shown below. Reactions were carried out in a kinase buffer containing 100 mM HEPES (pH 7.4), 1 mM DTT, 10 mM MgCl2, 25 mM NaCl, and 0.01% BSA.
(§2) Substrate concentrations in the assay were 5 μM ATP (200 uCi/μmole ATP) and 1 μM poly(Glu)4Tyr. Reactions were carried out at 25° C. and 1 nM JAK3.
(§3) To each well of a 96 well polycarbonate plate was added 1.5 μl of a candidate JAK3 inhibitor along with 50 μl of kinase buffer containing 2 μM poly(Glu)4Tyr and 10 μM ATP. This was then mixed and 50 μl of kinase buffer containing 2 nM JAK3 enzyme was added to start the reaction. After 20 minutes at room temperature (25° C.), the reaction was stopped with 50 μl of 20% trichloroacetic acid (TCA) that also contained 0.4 mM ATP. The entire contents of each well were then transferred to a 96 well glass fiber filter plate using a TomTek Cell Harvester. After washing, 60 μl of scintillation fluid was added and ^33P incorporation detected on a Perkin Elmer TopCount.

A further test has as its target JAK-2 enzyme (Homo sapiens, UniProt O60674). Briefly: JAK2 inhibition assay (radiometric 33P filter assay). Type of test: biochemical. The protocol:
as §1, §2, §3
The assays were as described above in Example 25 except that JAK-2 enzyme was used, the final poly(Glu)4Tyr concentration was 15 μM, and final ATP concentration was 12 μM.

The mark [1] stands for this setting: 1 μM poly(Glu)4Tyr, 5 μM ATP, 1 nM JAK3, 25° C., read-out: JAK3 inhibition data (Ki).
Setting [2] is: 15 μM poly(Glu)4Tyr, 12 μM ATP, read-out: JAK2 inhibition data (Ki).

What is called Ki is a dissociation constant, usually derived from enzyme kinetics or from competition with a known ligand.

Where two headings read alike, the source gives them in different places.

JAK-2 enzyme, sequence (O60674 whole entry, species assumed): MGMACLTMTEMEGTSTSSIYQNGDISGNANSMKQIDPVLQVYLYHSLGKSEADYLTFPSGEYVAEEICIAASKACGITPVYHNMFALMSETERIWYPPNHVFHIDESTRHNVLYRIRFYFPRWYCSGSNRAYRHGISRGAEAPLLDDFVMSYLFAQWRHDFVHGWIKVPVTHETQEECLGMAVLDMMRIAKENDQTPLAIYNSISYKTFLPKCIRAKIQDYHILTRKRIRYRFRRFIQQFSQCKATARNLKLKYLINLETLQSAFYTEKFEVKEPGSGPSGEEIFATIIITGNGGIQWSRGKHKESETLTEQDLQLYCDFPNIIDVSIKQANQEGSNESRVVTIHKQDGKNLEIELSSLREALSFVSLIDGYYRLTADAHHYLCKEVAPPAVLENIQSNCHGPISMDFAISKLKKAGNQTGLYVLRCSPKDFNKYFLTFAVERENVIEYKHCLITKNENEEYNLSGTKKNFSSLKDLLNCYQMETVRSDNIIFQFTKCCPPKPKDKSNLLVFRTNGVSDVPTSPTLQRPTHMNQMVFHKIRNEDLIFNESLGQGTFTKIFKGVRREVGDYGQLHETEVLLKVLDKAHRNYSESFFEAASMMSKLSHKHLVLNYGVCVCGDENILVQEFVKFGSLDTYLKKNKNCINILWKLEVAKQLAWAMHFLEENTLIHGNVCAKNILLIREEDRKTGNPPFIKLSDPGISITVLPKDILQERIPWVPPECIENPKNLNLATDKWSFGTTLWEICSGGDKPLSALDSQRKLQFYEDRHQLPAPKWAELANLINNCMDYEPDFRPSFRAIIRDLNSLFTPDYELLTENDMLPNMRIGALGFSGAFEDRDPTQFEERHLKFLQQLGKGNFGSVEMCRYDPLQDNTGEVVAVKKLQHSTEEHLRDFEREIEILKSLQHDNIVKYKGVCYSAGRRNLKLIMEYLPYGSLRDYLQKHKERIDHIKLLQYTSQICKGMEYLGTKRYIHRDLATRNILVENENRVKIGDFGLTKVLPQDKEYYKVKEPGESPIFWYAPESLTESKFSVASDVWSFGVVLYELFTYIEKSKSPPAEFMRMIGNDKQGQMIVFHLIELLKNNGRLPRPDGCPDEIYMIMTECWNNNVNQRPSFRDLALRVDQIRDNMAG

As for `CCCOC(=O)N1CCN(c2ccc(Nc3nc(N)n(-c4cc(N5CCCN(C(=O)CC#N)CC5)ncn4)n3)cc2)CC1` [Compound 125], the Ki on JAK3 (setting [1]) and on JAK-2 enzyme (setting [2]) was under 50 nM in each case.
Turning to `CC(=O)N1[C@H](C)CN(c2cc(-n3nc(Nc4ccc(N5CCN(C(=O)OCC(C)(C)C)CC5)cc4)nc3N)ncn2)C[C@@H]1C` [Compound 57], the Ki on JAK3 (setting [1]) and on JAK-2 enzyme (setting [2]) was under 50 nM throughout.
Consider `CC(=O)N1CCCN(c2cc(-n3nc(Nc4ccc(N)cc4)nc3N)ncn2)CC1` [Compound 20], for which the Ki on JAK3 (setting [1]) and at JAK-2 enzyme (setting [2]) was under 50 nM in each case.
For the molecule `CC(=O)N1[C@H](C)CN(c2cc(-n3nc(Nc4ccc(N5CCN(C(=O)Nc6c(F)cccc6F)CC5)cc4)nc3N)ncn2)C[C@@H]1C` [Compound 66], the Ki at JAK3 (setting [1]) and at JAK-2 enzyme (setting [2]) was under 50 nM throughout.
As to `CC(=O)N1[C@H](C)CN(c2cc(-n3nc(Nc4ccc(N)cc4)nc3N)ccn2)C[C@@H]1C` [Compound 99], the Ki at JAK3 (setting [1]) and at JAK-2 enzyme (setting [2]) was under 50 nM in each case.
For the molecule `CCOC(=O)N1CCN(c2ccc(Nc3nc(N)n(-c4ccnc(N5C[C@@H](C)N(C(C)=O)[C@@H](C)C5)c4)n3)cc2)CC1` [Compound 113], the Ki at JAK3 (setting [1]) and at JAK-2 enzyme (setting [2]) was under 50 nM in each case.
For `CC(=O)N1CCCN(c2cc(-n3nc(Nc4ccc(N5CCN(C(=O)OC(C)C)CC5)cc4)nc3N)ncn2)CC1` [Compound 48], the Ki on JAK3 (setting [1]) and on JAK-2 enzyme (setting [2]) was under 50 nM throughout.
In the case of `CC(=O)N1CCCN(c2cc(-n3nc(Nc4ccc(N5CCOCC5)cc4)nc3N)ccn2)CC1` [Compound 1], the results for the Ki at JAK3 (setting [1]) and on JAK-2 enzyme (setting [2]) were under 50 nM and 50 to 500 nM, respectively.
With `CC(=O)N1[C@H](C)CN(c2cc(-n3nc(Nc4ccc(NC(=O)OC(C)(C)C)cc4)nc3N)ncn2)C[C@@H]1C` [Compound 84], the Ki at JAK3 (setting [1]) and at JAK-2 enzyme (setting [2]) was under 50 nM each time.
`CC(=O)N1[C@H](C)CN(c2cc(-n3nc(Nc4ccc(N5CCN(C(=O)NC(C)C)CC5)cc4)nc3N)ncn2)C[C@@H]1C` [Compound 62]: the Ki on JAK3 (setting [1]) and on JAK-2 enzyme (setting [2]) was under 50 nM throughout.
On to `Nc1nc(Nc2ccc(N3CCOCC3)cc2)nn1-c1cc(N2CCN3C(=O)CC[C@H]3C2)ncn1` [Compound 22], for which the Ki on JAK3 (setting [1]) and on JAK-2 enzyme (setting [2]) was under 50 nM throughout.
`CCCC1CCC(C(=O)Nc2ccc(Nc3nc(N)n(-c4cc(N5CCCN(C(C)=O)CC5)ncn4)n3)cc2)CC1` (centres unmarked) [Compound 25]: the Ki on JAK3 (setting [1]) and at JAK-2 enzyme (setting [2]) was 50 to 500 nM throughout.
As for `Nc1nc(Nc2ccc(N3CCOCC3)cc2)nn1-c1ccnc(N2CCCCCC2)c1` [Compound 19], the Ki on JAK3 (setting [1]) and at JAK-2 enzyme (setting [2]) was under 50 nM each time.
With `COC(=O)N(C)c1ccc(Nc2nc(N)n(-c3cc(N4CCCN(C(C)=O)CC4)ncn3)n2)cc1` [Compound 126], the Ki on JAK3 (setting [1]) and on JAK-2 enzyme (setting [2]) was under 50 nM in each case.
Consider `CC(=O)N1CCCN(c2cc(-n3nc(Nc4ccc(N(C)C(=O)Oc5ccc(C)cc5)cc4)nc3N)ncn2)CC1` [Compound 133], for which the Ki at JAK3 and on JAK-2 enzyme was under 50 nM each time.
As to `CCOC(=O)N1CCN(c2ccc(Nc3nc(N)n(-c4cc(N5CCC6CCC(C5)N6C)ncn4)n3)cc2)CC1` (centres unmarked) [Compound 166], the Ki on JAK3 (setting [1]) and at JAK-2 enzyme (setting [2]) was under 50 nM throughout.
As for `Nc1nc(Nc2ccc(N3CCOCC3)cc2)nn1-c1cc(N2CCCN(C(=O)CC(F)(F)F)CC2)ncn1` [Compound 9], the Ki at JAK3 (setting [1]) and on JAK-2 enzyme (setting [2]) was under 50 nM each time.
Turning to `COC(=O)Nc1ccc(Nc2nc(N)n(-c3cc(N4CCCN(C(C)=O)CC4)ncn3)n2)cc1` [Compound 90], the Ki on JAK3 (setting [1]) and at JAK-2 enzyme (setting [2]) was under 50 nM throughout.
In the case of `Nc1nc(Nc2ccc(N3CCOCC3)cc2)nn1-c1ccnc(N2CC3CCC(CC3)C2)c1` [Compound 18], the Ki on JAK3 (setting [1]) and on JAK-2 enzyme (setting [2]) was under 50 nM each time.
With `CC(=O)N1CCCN(c2cc(-n3nc(Nc4ccc(NC(=O)NC5CCCCC5)cc4)nc3N)ncn2)CC1` [Compound 88], the Ki at JAK3 (setting [1]) and at JAK-2 enzyme (setting [2]) was under 50 nM each time.
As for `CC(=O)N1CCCN(c2cc(-n3nc(Nc4ccc(N(C)C(=O)OCC(C)(C)C)cc4)nc3N)ncn2)CC1` [Compound 132], the Ki at JAK3 (setting [1]) and at JAK-2 enzyme (setting [2]) was under 50 nM in each case.
In the case of `CCOC(=O)CCNC(=O)Nc1ccc(Nc2nc(N)n(-c3cc(N4CCCN(C(C)=O)CC4)ncn3)n2)cc1` [Compound 89], the Ki on JAK3 (setting [1]) and on JAK-2 enzyme (setting [2]) was under 50 nM throughout.
Take `CCCNC(=O)Nc1ccc(Nc2nc(N)n(-c3cc(N4CCCN(C(C)=O)CC4)ncn3)n2)cc1` [Compound 85]: the Ki on JAK3 (setting [1]) and on JAK-2 enzyme (setting [2]) was under 50 nM in each case.
Consider `CCCOC(=O)N1CCN(c2ccc(Nc3nc(N)n(-c4ccnc(N5CCCN(C(=O)OC)CC5)c4)n3)cc2)CC1` [Compound 158], for which the Ki on JAK3 (setting [1]) and at JAK-2 enzyme (setting [2]) was 50 to 500 nM throughout.
Consider `Nc1nc(Nc2ccc(N3CCOCC3)cc2)nn1-c1cc(N2CCN3C(=O)CC[C@@H]3C2)ncn1` [Compound 23], for which the Ki on JAK3 (setting [1]) and at JAK-2 enzyme (setting [2]) was under 50 nM throughout.
Consider `Nc1nc(Nc2ccc(N3CCOCC3)cc2)nn1-c1cc(N2CCNC(=O)CC2)ncn1` [Compound 3], for which the Ki at JAK3 (setting [1]) and on JAK-2 enzyme (setting [2]) was under 50 nM in each case.
For the molecule `CC(=O)N1CCCN(c2cc(-n3nc(Nc4ccc(N(C)C(=O)Oc5ccccc5)cc4)nc3N)ncn2)CC1` [Compound 134], the Ki at JAK3 and on JAK-2 enzyme was under 50 nM each time.
In the case of `CC(=O)N1[C@H](C)CN(c2cc(-n3nc(Nc4ccc(N5CCN(C(=O)NC6CCCCC6)CC5)cc4)nc3N)ncn2)C[C@@H]1C` [Compound 64], the Ki at JAK3 (setting [1]) and on JAK-2 enzyme (setting [2]) was under 50 nM each time.
`CCOC(=O)N1CCN(c2ccc(Nc3nc(N)n(-c4cc(N5CCCN(C(C)=O)CC5)ncn4)n3)cc2)CC1` [Compound 46]: the Ki at JAK3 (setting [1]) and on JAK-2 enzyme (setting [2]) was under 50 nM throughout.
Turning to `CC(=O)N1[C@H](C)CN(c2cc(-n3nc(Nc4ccc(NC(=O)Nc5c(F)cccc5F)cc4)nc3N)ncn2)C[C@@H]1C` [Compound 73], the Ki at JAK3 (setting [1]) and at JAK-2 enzyme (setting [2]) was under 50 nM each time.
For `CC(=O)N1[C@H](C)CN(c2cc(-n3nc(Nc4ccc(NC(=O)CC(C)C)cc4)nc3N)ccn2)C[C@@H]1C` [Compound 111], the Ki at JAK3 (setting [1]) and on JAK-2 enzyme (setting [2]) was under 50 nM each time.
As for `CCCOC(=O)Nc1ccc(Nc2nc(N)n(-c3ccnc(N4CCCN(C(C)=O)CC4)c3)n2)cc1` [Compound 172], the figures for the inhibition constant (Ki) at JAK3 (setting [1]) and on JAK-2 enzyme (setting [2]) were under 50 nM and 50 to 500 nM, respectively.
Taken in the same sequence, the figures for `CC(=O)N1CCCN(c2cc(-n3nc(Nc4ccc(NC(=O)c5ccco5)cc4)nc3N)ncn2)CC1` [Compound 30] were under 50 nM and under 50 nM.
For the molecule `Nc1nc(Nc2ccc(N3CCOCC3)cc2)nn1-c1ccnc(N2CCCOCC2)c1` [Compound 14], the Ki at JAK3 (setting [1]) and on JAK-2 enzyme (setting [2]) was 50 to 500 nM each time.
As for `CC(=O)N1CCCN(c2cc(-n3nc(Nc4ccc(NC(=O)OC(C)(C)C)cc4)nc3N)ncn2)CC1` [Compound 21], the Ki at JAK3 (setting [1]) and at JAK-2 enzyme (setting [2]) was under 50 nM in each case.
For `CCOC(=O)CCNC(=O)N1CCN(c2ccc(Nc3nc(N)n(-c4cc(N5C[C@@H](C)N(C(C)=O)[C@@H](C)C5)ncn4)n3)cc2)CC1` [Compound 65], the Ki at JAK3 (setting [1]) and on JAK-2 enzyme (setting [2]) was under 50 nM in each case.
As for `CC(=O)N1[C@H](C)CN(c2cc(-n3nc(Nc4ccc(N5CCN(C(=O)NC(C)(C)C)CC5)cc4)nc3N)ncn2)C[C@@H]1C` [Compound 63], the Ki at JAK3 (setting [1]) and on JAK-2 enzyme (setting [2]) was under 50 nM each time.
